Tests used:
[1] = tested on: hippocampal neuronal cell cultures; assay: Acute addition of antimicrobial agents to spontaneously active hippocampal neuronal cultures on MMEP plates; format: cell-based, rat; conditions: for effect on spontaneous activity at up to 10 times the normal concentration/volume: sequential 10 μl additions up to 10 times normal; for effect on spontaneous activity (firing) of the monitored channel: acute addition (10 μl) at the concentration used routinely in tissue culture, hippocampal cultures grown 4 weeks antibiotic-free; for effect of further sequential 10 μl additions: subsequent 10 μl aliquots (penicillin G up to 100 μl at approx. 10 second intervals)
Experimental: Acute administration of antibiotic compounds to neuronal cell cultures: the majority of experiments involved the investigation of acute addition of a range of antibiotics to hippocampal cultures grown in antibiotic-free Neurobasal medium for 4 weeks. In each case MMEP's were screened for activity and a strong, reliable channel was selected for experimentation. Each antibiotic was tested on at least 3 individual cultures and the antibiotic addition was started at the concentration used routinely in tissue culture studies. As controls, the anti-fungal agents Nystatin and Amphotericin B (Fungizone), and the anti-mycoplasma (PPLO) agent Tylosin were also tested. In addition, the agent in which the antibiotic compound was dissolved (usually deionised water or 0.9% sodium chloride), as well as normal medium, were also tested for any effects on neuronal activity. Particular interest was paid to the effects of penicillin G, streptomycin and penicillin/streptomycin mixtures. These are routinely used in tissue culture medium and therefore any possible toxic effects are particularly relevant.

[2] = tested on: hippocampal cultures; assay: Chronic administration of antibiotics to hippocampal cultures grown over 4 weeks, neuronal network activity; format: cell-based, rat
Experimental: Effects of antibiotics on neuronal network activity: chronic administration of antibiotics to neuronal cell cultures. The chronic effect of antibiotics on neuronal network activity was investigated. Experiments were performed on hippocampal cultures grown in parallel, from the same cell preparation, in the presence or absence of penicillin-streptomycin or gentamycin at the recommended doses.

[3] = tested on: guinea pigs; conditions: high doses, administered chronically to guinea pigs; cited from earlier work
[4] = tested on: P19 cell line; assay: Differentiation of P19 cell line with retinoic acid; format: cell-based, mouse; conditions: retinoic acid in differentiation medium
Experimental: Differentiation: MEM+0.1% FBS+L-Glutamine (2 mM)+Non-essential Amino acids (1×)+30 uM retinoic acid
Neurobasal+B27+Non-essential Amino acids (1×)+L-Glutamine (2 mM)+30 uM retinoic acid
Differentiation experiments have been performed on the P19 cell line using retinoic acid. […] However, only 60-70% of the cells responded to the stimulus, such that over an extended period the non-neuronal cells proliferate vigorously and kill the neuronal cells. The use of serum-free medium has overcome this problem but cultures appear unhealthy after a period of 2 weeks.

**Q.** For `C[C@@H]1[C@H](O)[C@@H](C)/C=C/C=C/CC/C=C/C=C/C=C/C=C/C(O[C@H]2O[C@H](C)[C@@H](O)[C@H](N)[C@@H]2O)CC2O[C@](O)(CC(O)C(O)CCC(O)CC(O)CC(O)CC(=O)O[C@H]1C)CC(O)C2C(=O)O` (stereo partly drawn) [Nystatin], which “effect on spontaneous activity at up to 10 times the normal concentration/volume” value [1] is on record?
**A.** The value was “No inhibition of activity”.

**Q.** For Polymyxin ‘B’, which “effect on spontaneous activity (firing) of the monitored channel” value (shortened to “effect on spontaneous activity (firing)”) [1] is on record?
**A.** Its value is “inhibition of activity”.

**Q.** Which “long-term effect indicated by poor frequency of activity detection” value ([2]; cultures grown for several weeks in the presence of the antibiotic) does the source give for Gentamicin here?
**A.** Its value is “toxic effect”.

**Q.** And the “effect on neuronal network activity after chronic presence” value ([2]; recommended doses, grown over a 4-week period)?
**A.** The value was “almost complete cessation of activity”.

**Q.** What about the “effect on neuronal cytoarchitecture” value [3] of the same compound?
**A.** The value was “major structural changes in neuronal cytoarchitecture”.

**Q.** What about the “effect on spontaneous activity (firing)” value [1] of the same compound?
**A.** Its value is “cessation of neuronal activity”.

**Q.** And the reversibility of inhibition ([1]; complete medium change within the MMEP culture apparatus)?
**A.** The reversibility of inhibition was “reversed by a complete medium change”.

**Q.** For `CC[C@H]1OC(=O)C[C@@H](O)[C@H](C)[C@@H](O[C@@H]2O[C@H](C)[C@@H](O[C@H]3C[C@@](C)(O)[C@@H](O)[C@H](C)O3)[C@H](N(C)C)[C@H]2O)[C@@H](CC=O)C[C@@H](C)C(=O)/C=C/C(C)=C/[C@@H]1CO[C@@H]1O[C@H](C)[C@@H](O)[C@@H](OC)[C@H]1OC` [Tylosin], which “effect on spontaneous activity at up to 10 times the normal concentration/volume” value [1] is on record?
**A.** The value was “No inhibition of activity”.

**Q.** Which “effect on spontaneous activity at up to 10 times the normal concentration/volume” value [1] does the source give for `C[C@@H]1[C@H](O)[C@@H](C)/C=C/C=C/C=C/C=C/C=C/C=C/C=C/[C@H](O[C@@H]2O[C@H](C)[C@@H](O)[C@H](N)[C@@H]2O)C[C@@H]2O[C@](O)(C[C@@H](O)C[C@@H](O)[C@H](O)CC[C@@H](O)C[C@@H](O)CC(=O)O[C@H]1C)C[C@H](O)[C@H]2C(=O)O` [amphotericin B, Amphotericin B] here?
**A.** The value was “No inhibition of activity”.

**Q.** For `CC1(C)S[C@@H]2[C@H](NC(=O)Cc3ccccc3)C(=O)N2[C@H]1C(=O)O` [Penicillin G], which “effect on spontaneous activity (firing)” value [1] is on record?
**A.** Its value is “immediate increase in the firing rate”.

**Q.** And the “effect on spike amplitude” value ([1]; acute addition of 10 μl)?
**A.** Its value is “small associated decrease in the amplitude”.

**Q.** What about the “effect on spontaneous activity at up to 10 times the normal concentration/volume” value [1] of the same compound?
**A.** The value was “initial acceleration of the firing rate, with an accompanied reduction in spike amplitude”.

**Q.** And the “effect of further sequential 10 μl additions” value [1]?
**A.** Its value is “further decrease in the amplitude with eventual slowing of the firing rate”.

**Q.** Which “proportion of cells that responded to the stimulus” value [4] does the source give for `CC1=C(/C=C/C(C)=C/C=C/C(C)=C/C(=O)O)C(C)(C)CCC1` [retinoic acid] here?
**A.** The value was 60-70%.

**Q.** With `[H]/N=C(/N)N[C@H]1[C@H](O)[C@@H](O)[C@H](O[C@@H]2O[C@@H](C)[C@](O)(C=O)[C@H]2O[C@@H]2O[C@@H](CO)[C@H](O)[C@@H](O)[C@@H]2NC)[C@@H](N/C(N)=N\[H])[C@@H]1O` [Streptomycin] as the compound, how does the “silence before activity begins to recover” value ([1]; 10 μl, particularly strong (>500(V) channel, without change of medium)) read?
**A.** Its value is “approximately 30 seconds”.

**Q.** And the “effect on spontaneous activity (firing)” value [1]?
**A.** The value was “immediate cessation of firing”.

**Q.** What about the “effect of further sequential 10 μl additions” value [1] of the same compound?
**A.** The value was “immediate interruption of activity”.

**Q.** And the “effect on channel with weak activity” value ([1]; weak activity (<500 μV), single 10 μl addition)?
**A.** The value was “sufficient to inhibit activity for several minutes”.

Reference: patent US20020192637A1, “Biological Sensor” (priority 1999, published 2002)
